Results reported in patent publication US11555212B2, “Process for the production of sulfated phenolic compounds using modified Escerichia coli” (CysBio ApS, priority 2016, dated 2023).

Assays:
[1] = target: T1, SULT1A1 human (Homo sapiens, UniProt P50225, V223M); experiment: pHCA and zosteric acid in culture media of E. coli expressing an aryl sulfotransferase in combination with a tyrosine ammonia lyase; type: cell-based; conditions: E. coli BL21(DE3)pLysS expressing SULT1A1 Homo sapiens and RmXAL, M9 glucose, 0.1 mM IPTG, no substrate added
T1 construct: expressed in transfected cells; host or cells: E. coli BL21(DE3)pLysS
Protocol: (§1) The concentration of p-courmaric acid (pHCA) and zosteric acid in the supernatant was quantified by high performance liquid chromatography (HPLC) and compared to chemical standards. HPLC was done on a Thermo setup using a HS-F5 column and mobile phases: 5 mM ammonium formate pH 4.0 (A) and acetonitrile (B) at 1.5 mL min-1, using a gradient elution starting at 5% B. From 0.5 min after injection to 7 min, the fraction of B increased linearly from 5% to 60%, and between 9.5 min and 9.6 the fraction of B decreased back to 5%, and remaining there until 12 min. pHCA and zosteric acid were quantified by measuring absorbance at 277 nm.
The enzyme RmXAL from Rhodotorula mucilaginosa/Rhodotorula rubra (SEQ ID NO: 46) has tyrosine ammonia lyase activity, thus catalyzing the non-oxidative deamination of the amino acid tyrosine, releasing p-coumaric acid (pHCA) and ammonia. The gene encoding RmXAL was codon optimized using standard algorithms for expression in E. coli available by GeneArt (Life Technologies) and amplified by PCR using the primers shown in Table 5 and inserted into the pCDFDuet-1 vector (Novagen/Life Technologies), which had been digested by the restriction enzymes NdeI and BgIII, using Gibson reaction (New England Biolabs). […]

[2] = target: T2, RsTAL (Cereibacter sphaeroides, UniProt Q3IWB0); experiment: Titers of pHCA and zosteric acid, E. coli co-expressing tyrosine ammonia-lyase and SULT1A1 rat; type: cell-based, Rhodobacter sphaeroides; conditions: E. coli BL21(DE3) with SULT1A1 rat and RsTAL; M9, 0.2% glucose, 2 mM tyrosine, 1 mM IPTG; overnight 37° C.; supernatant
T2 construct: were optimized for E. coli and synthesized by GeneArt, amplified by PCR; expressed in transfected cells; host or cells: E. coli BL21(DE3), plasmid pCBJ215
Protocol: as §1
The genes encoding the tyrosine ammonia-lyases RcTAL (from Rhodobacter capsulatus; SEQ ID NO: 50), RsTAL (from Rhodobacter sphaeroides; SEQ ID NO: 43) and FjTAL (from Flavobacterium johnsoniae; SEQ ID NO: 40) were cloned into expression vectors as follows. […]
Strains harboring recombinant plasmids were pre-cultured in 2×YT liquid medium with 100 μg mL^−1 ampicillin and 50 μg mL^−1 spectinomycin and incubated at 37° C. and 250 rpm overnight. […] The supernatants were then collected by centrifugation twice and applied to HPLC analysis as described in example 1, and the titers of p-coumaric acid (pHCA) and zosteric acid (ZA) were quantified using chemical standards and are presented in the table below.

[3] = target: T1, SULT1A1 human; experiment: pHCA and zosteric acid in culture media of E. coli expressing an aryl sulfotransferase in combination with cysDNC and cysQ; type: cell-based; conditions: Enzymes: SULT1A1 Homo sapiens, grown as in Example 1 (0.1 mM pHCA)
Protocol: The strains were grown in M9 minimal media containing glucose as a carbon source, and 0.1 mM IPTG for induction of gene expression as well as 0.1 mM p-coumaric acid (pHCA). After four days of growth, samples were withdrawn by filtration and analyzed by HPLC.
as §1
The addition of sulfated groups to targets is dependent on supply of the donor molecule 3′-Phosphoadenosine 5′-phosphosulfate (PAPS). We examined if we could increase the production of zosteric acid by overexpressing enzymes providing PAPS and an enzyme that removes the product 3′-Phosphoadenosine 5′-phosphate (PAP).
In E. coli, the genes cysD and cysN encode the two subunits of ATP sulfurylase (EC:2.7.7.4), cysC encodes APS kinase (EC:2.7.1.25), and cysQ encode a PAP phosphatase.
The plasmid pRSFDuet-1 (Life Technologies) was digested by the restriction endonucleases NdeI and BgIII. The gene cluster was inserted into the digested plasmid using the Gibson reaction (New England Biolabs). […] For the combined expression of cysDNC and cysQ in an artificial operon, cysDNCQ, the two parts were amplified by PCR from E. coli MG1655 chromosomal DNA using the primers shown in Table 3. Again the parts were inserted into the digested plasmid. […] The plasmid expressing SULT1A1 Homo sapiens (SEQ ID NO: 2) from example 1 was co-transformed into E. coli BL21(DE3)pLysS cells (Life Technologies) with either the plasmid expressing cysDNC or cysDNCQ.
Cells were grown as in Example 1 and the supernatants were analyzed for product formation as in example 1. The strain expressing SULT1A1 in combination with cysDNCQ was also grown without the addition of IPTIG for induction.

T1 sequence (P50225 whole entry V223M): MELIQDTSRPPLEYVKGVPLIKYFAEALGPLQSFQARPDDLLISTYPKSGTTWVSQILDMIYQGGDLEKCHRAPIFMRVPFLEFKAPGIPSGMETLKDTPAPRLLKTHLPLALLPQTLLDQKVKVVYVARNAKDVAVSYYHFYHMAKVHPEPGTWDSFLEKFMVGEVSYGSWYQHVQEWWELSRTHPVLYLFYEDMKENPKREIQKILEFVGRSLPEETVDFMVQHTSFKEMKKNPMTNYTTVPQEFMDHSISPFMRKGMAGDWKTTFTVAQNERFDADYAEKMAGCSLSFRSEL
T2 sequence (Q3IWB0 whole entry Q21E/A24S/I74V/S113A/S143M/R238G/D285G/G287S): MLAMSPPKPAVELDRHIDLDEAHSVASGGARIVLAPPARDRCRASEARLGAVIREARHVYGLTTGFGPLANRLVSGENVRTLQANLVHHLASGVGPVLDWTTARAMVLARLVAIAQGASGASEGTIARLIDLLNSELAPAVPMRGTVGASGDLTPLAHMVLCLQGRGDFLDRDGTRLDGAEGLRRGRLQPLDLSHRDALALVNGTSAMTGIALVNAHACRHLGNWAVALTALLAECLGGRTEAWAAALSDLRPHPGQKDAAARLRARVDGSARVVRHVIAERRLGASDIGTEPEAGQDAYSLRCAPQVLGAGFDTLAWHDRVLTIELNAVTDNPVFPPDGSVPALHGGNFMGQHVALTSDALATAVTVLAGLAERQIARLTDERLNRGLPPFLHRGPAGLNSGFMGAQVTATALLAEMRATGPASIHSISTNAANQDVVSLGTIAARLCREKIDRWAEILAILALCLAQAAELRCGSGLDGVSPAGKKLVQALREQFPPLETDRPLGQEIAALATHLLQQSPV

Row | Compound | Zosteric acid formed [1] [mM] | Titer of zosteric acid (ZA) [2] [µM] | Zosteric acid formed ([3]; CysDNC, induction 0.1 mM IPTG) [mM] | Zosteric acid formed ([3]; CysDNCQ, induction 0.1 mM IPTG) [mM] | Zosteric acid formed ([3]; induction 0.1 mM IPTG) [mM] | pHCA [1] [mM] | Titer of p-coumaric acid (pHCA) [2] [μM] | pHCA remaining ([3]; CysDNC, induction 0.1 mM IPTG) [mM] | pHCA remaining ([3]; CysDNCQ, induction 0.1 mM IPTG) [mM] | pHCA remaining ([3]; CysDNCQ, induction None) [mM] | pHCA remaining ([3]; induction 0.1 mM IPTG) [mM]
1 | O=C(O)/C=C/c1ccc(OS(=O)(=O)O)cc1 [Zosteric acid, zosteric acid] | 0.01 | <1 | 0.06 | 0.09 | 0.02 | – | – | – | – | – | –
2 | O=C(O)/C=C/c1ccc(O)cc1 [pHCA, p-coumaric acid] | – | – | – | – | – | 0.02 | 78 | 0.06 | 0.04 | 0.10 | 0.08
